In PMC7300003, “Alternative catalytic residues in the active site of Esco acetyltransferases” (Scientific Reports, 2020):

Key:
[1] = molecular target: T1, HsESCO1 (Homo sapiens, UniProt Q5FWF5); test: SMC3 acetylation time course, anti-acetyl-Smc3 immunoblot; assay type: biochemical; details: 10 µM AcCoA; acceptor human trimeric or tetrameric cohesin (SMC3 K105/K106); ATP, plasmid DNA, 1 mM MgCl2, pH 7.5, 37 °C
T1 construct: gene ESCO1; full-length, N-terminal His-tag, Sf9 insect cells
T1 sequence (Q5FWF5 1-840): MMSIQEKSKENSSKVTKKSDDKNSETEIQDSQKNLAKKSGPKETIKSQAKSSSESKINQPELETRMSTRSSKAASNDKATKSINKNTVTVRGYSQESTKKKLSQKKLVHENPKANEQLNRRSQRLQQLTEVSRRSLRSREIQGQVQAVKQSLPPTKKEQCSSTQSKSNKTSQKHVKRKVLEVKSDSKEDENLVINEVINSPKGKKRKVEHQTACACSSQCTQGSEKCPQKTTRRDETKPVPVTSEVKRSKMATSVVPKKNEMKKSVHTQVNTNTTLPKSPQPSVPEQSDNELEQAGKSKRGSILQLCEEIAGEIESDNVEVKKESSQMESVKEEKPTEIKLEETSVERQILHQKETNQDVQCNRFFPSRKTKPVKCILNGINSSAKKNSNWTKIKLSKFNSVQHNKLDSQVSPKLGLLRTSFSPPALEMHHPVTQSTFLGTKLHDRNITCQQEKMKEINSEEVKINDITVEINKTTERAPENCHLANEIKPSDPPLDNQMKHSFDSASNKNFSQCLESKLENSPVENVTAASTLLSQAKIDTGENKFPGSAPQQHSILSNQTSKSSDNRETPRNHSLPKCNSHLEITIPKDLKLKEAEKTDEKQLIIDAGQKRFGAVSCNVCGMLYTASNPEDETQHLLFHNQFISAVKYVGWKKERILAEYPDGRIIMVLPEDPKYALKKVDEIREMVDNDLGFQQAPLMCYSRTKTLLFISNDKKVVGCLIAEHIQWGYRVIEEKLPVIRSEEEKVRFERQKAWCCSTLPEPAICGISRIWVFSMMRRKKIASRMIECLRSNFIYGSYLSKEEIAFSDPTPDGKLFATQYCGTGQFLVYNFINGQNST

[2] = molecular target: T2, MmEsco2^368–592 (Mus musculus, UniProt Q8CIB9); test: X-ray crystallography, […] Å (zinc SAD); assay type: binding; details: natively bound (co-purified) CoA; active-site groove; pH 8 crystallisation
T2 construct: gene Esco2; residues 368-592 (C2H2 zinc finger and acetyltransferase domain), C-terminal His-tag, Hi5 insect cells
T2 sequence (Q8CIB9 368-592): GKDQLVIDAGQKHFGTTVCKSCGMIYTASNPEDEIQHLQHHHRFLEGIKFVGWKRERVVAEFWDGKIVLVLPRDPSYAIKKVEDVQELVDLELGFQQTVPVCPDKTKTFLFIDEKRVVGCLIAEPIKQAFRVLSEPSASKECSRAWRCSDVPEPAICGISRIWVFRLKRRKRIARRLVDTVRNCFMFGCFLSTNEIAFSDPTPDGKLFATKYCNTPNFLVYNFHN

| Structure (SMILES) | SMC3 acetylation time course, anti-acetyl-Smc3 immunoblot [1] | X-ray crystallography, 1.8 Å (zinc SAD) [2] |
| --- | --- | --- |
| CC(=O)SCCNC(=O)CCNC(=O)[C@H](O)C(C)(C)COP(=O)(O)OP(=O)(O)OC[C@H]1O[C@@H](n2cnc3c(N)ncnc32)[C@H](O)[C@@H]1OP(=O)(O)O [AcCoA] | The purified tetrameric cohesin complex was incubated with HsESCO1 and AcCoA | – |
| CC(C)(COP(=O)(O)OP(=O)(O)OC[C@H]1O[C@@H](n2cnc3c(N)ncnc32)[C@H](O)[C@@H]1OP(=O)(O)O)[C@@H](O)C(=O)NCCC(=O)NCCS [CoA] | – | The CoA cofactor is natively present in a complex with MmEsco2 in a groove |
